The source of these data is US20140087944A1, “COMPOSITIONS AND METHODS FOR ENHANCING PLANT GROWTH” (NOVOZYMES BIOAG A/S, priority 2012, published 2014).

Common to all, as to type: in vivo
For experiment [1], the system named is soybean. In words: Soybean pod yield in greenhouse, gluconolactone with isoflavonoids (Example 8). Conditions: for soybean pod yield, Fresh Weight: gluconolactone 1 mg/L, pods harvested after 6 weeks; for yield increase over Cue®: gluconolactone added with Cue®. How it is done:
Cue® is a genistein/daidzein isoflavonoid product available from Novozymes Biologicals, Inc. Cue® is used as a soybean seed treatment and the effect of gluconolactone in combination with flavonoids was evaluated to see if soybean production could be enhanced. Gluconolactone was prepared with Cue®. Daidzein, another isoflavonoid, was similarly prepared with gluconolactone with daidzein having the same isoflavonoid concentration as Cue®.
About 100 g soybean seeds were treated with 1 mg/L treatment solutions of gluconolactone and 200 μl of CruiserMaxx® Beans (Syngenta) fungicide+170 μl distilled water+30 μl Cue® or daidzein. For control, a total of 200 μl water was used with 200 μl CruiserMaxx® Bean fungicide. One day after seed treatments, seeds were planted in greenhouse in 1 gallon plastic pots containing soilless mix Fafard 3B. There were 3 plants/pot and 4 pots/treatment. Soybean plants were occasionally fertilized with 20-15-20 NPK fertilizer. Pods were harvested after 6 weeks. Average pod fresh weights were analyzed by student-t test using JUMP statistical software.

A further experiment concerns corn seedling. Briefly: Corn seedling root growth after seed treatment, Petri plate germination, WinRhizo root scanner (Examples 1 and 2). As to the method:
An experiment was performed to determine the effect of gluconolactone on corn seedling root growth parameters. Unsterilized corn seeds (Peterson Hybrid corn 98L90GTCBLL pre-treated with fungicide Acceleron) were treated with water (control) and gluconolactone solutions (1 and 10 mg/L distilled water). In a clear plastic bag (25 cm×25 cm), 100 gram seeds were treated with 500 μl water (for control). Gluconolactone treatments of 1 and 10 mg/L included 250 μl water+250 μl gluconolactone solution with vigorous shaking. Four hours after treatment, 10 seeds were plated in 150 mm×15 mm polystyrene Petri plates (Fisherband) on 5⅜″ germination paper circle (Anchor Paper Co., Saint Paul, Mn) and moistened with 12 ml distilled water. Four Petri plates were prepared per treatment as 4 replicates. Petri plates were then placed in the dark in under-counter cabinets in the lab at 24° C. for 7 days. After 7 days, seedlings were removed from the cabinets, exposed to light, and their main roots severed and measured for various root parameters with WinRhizo root scanner (Regent Instruments Inc., WinRhizo Pro 2007). For all statistical analysis, student t-test was applied using JMPv.9 statistical software.
An experiment was designed to evaluate if any gluconolactone concentration between 1.0-10 mg/L and below 1.0 mg/L has an optimum effect on influencing seedling root growth. Example 2 was conducted according to the protocols of Example 1. Accordingly, gluconolactone concentrations of 5.0 mg/L, 1.0 mg/L, and 0.5 mg/L, were evaluated.

A further experiment concerns corn seedlings. In words: Growth of seedlings in water-agar medium in test tube (Example 3), corn. How it is done:
(§1) The effect of gluconolactone on growth of seedlings of various crops was examined. Corn, green lentil and yellow pea seeds (100 g) were treated with 1.0 mg/L gluconolactone and control seeds were treated with distilled water according to the protocols of Example 1. After treatments, seeds were allowed to dry overnight. One day after treatment, seeds were placed in 25×150 mm glass test tubes containing 40 ml of 5% water-agar solidified medium. Seeds were placed on the surface of medium in each test tube. Test tubes were then placed in a rack and kept in the lab under diffuse light. As the treated seeds were not sterilized, sterilization of the agar medium was not maintained and the test tubes were kept uncapped. Because of the agar medium being without any sugar, the occurrence of contamination was minimal for up to 10 days. The number of seeds per treatment was 10.

For another experiment, the system named is green lentil seedlings. In words: Growth of seedlings in water-agar medium in test tube (Example 3), lentil. How it is done:
as §1

Another experiment relates to yellow pea seedlings. Briefly: Growth of seedlings in water-agar medium in test tube (Example 3), pea. As to the method:
as §1

Experiment [2] deals with soybean. Briefly: Performance of rhizobial inoculants for soybean seeds, pod yield (Example 10). How it is done:
The effect of gluconolactone on the performance of rhizobial inoculants for soybean seeds was evaluated to see if soybean production could be enhanced. 1 mg/L of gluconolactone was added to rhizobial inoculants products Cell-Tech® and Optimize-400® (both from Novozymes Biologicals Inc.). Seed treatments were performed following the instruction cited in the product labels. The total liquid dose going onto soybean seeds was maintained the same when gluconolactone was added. Control seeds were treated with water. About 100 g seed was treated in a clear plastic bag (25 cm×25 cm) with treatment solutions. Seeds were planted 2 hours after treatment in […] containing Fafard soilless mix in greenhouse. 3 plants were allowed to grow per pot and there were 5 pots per treatment. Pods were harvested 6 weeks after planting.

The subject of another experiment is lentil seedlings. Briefly: Stress tolerance of lentil seedlings at 8° C., root growth parameters (Example 11). Conditions: seven days after plating, 1.0 mg/L gluconolactone, 100 mg/L glutathione, 100 mg/L PADG. As to the method: The effect of antioxidants on stress tolerance by lentil seedlings at 8° C. was evaluated. Lentil seeds treated with the treatment solutions at 5 ml/kg of seed. […] Treated seeds were plated in large Petri plates on germination paper moistened with deionized water. Plates were incubated at 8° C. in a walk in cold room. Seven days after plating, seedling roots were measured for various growth parameters.

[3] abbreviates: Example 1, GL 1 mg/L seed treatment, main root, 7 days.
Setting [4] is: Example 1, GL 1 mg/L seed treatment, main root, 7 days, listed as GL.
Where [5] appears, read: Example 1, GL 10 mg/L seed treatment, main root, 7 days.
[6] abbreviates: Example 1, GL 10 mg/L seed treatment, main root, 7 days, listed as GL.
The mark [7] stands for this setting: Example 2, GL 0.5 mg/L seed treatment.
Where [8] appears, read: Example 2, GL 1.0 mg/L seed treatment.
The mark [9] stands for this setting: Example 2, GL 5.0 mg/L seed treatment.
Where [10] appears, read: gluconolactone 1 mg/L seed treatment, harvested 10 days after planting.
Setting [11] is: gluconolactone 1 mg/L, non-significantly.

Turning to `O=c1c(-c2ccc(O)cc2)coc2cc(O)ccc12` [Daidzein, reference compound], the results for the “soybean pod yield, Fresh Weight” value in the experiment with soybean [1] (1st trial), with soybean [1] (2nd trial) and in the experiment with soybean [1] (3rd trial) were 36.782 g, 36.4 g and 32.482 g, respectively.

In the case of `O=C1O[C@H](CO)[C@@H](O)[C@H](O)[C@H]1O` [Gluconolactone, gluconolactone], the Diameter in the experiment on corn seedling (setting [3]) is 0.940a mm; in the experiment with corn seedling (setting [5]), “did not show any difference”. Besides, the Surface area result with corn seedling (setting [3]) is listed as “significantly higher than control”; in the experiment on corn seedling (setting [4]) it was 2.128a cm^2; with corn seedling (setting [5]), “did not show any difference”; in the experiment with corn seedling (setting [6]), 1.748ab cm^2; in the experiment on lentil seedlings, 0.9457 a cm^2; in the experiment on lentil seedlings (listed as gluconolactone), “significantly increased”. Besides, the Volume result was “significantly higher than control” with corn seedling (setting [3]); 0.051a cm^3 with corn seedling (setting [4]); “did not show any difference” in the experiment with corn seedling (setting [5]); 0.039ab cm^3 in the experiment on corn seedling (setting [6]); 0.02474 a cm^3 with lentil seedlings; “significantly increased” in the experiment on lentil seedlings (listed as gluconolactone). The Length result with corn seedling (Example 1, GL 1 mg/L seed treatment, main root, 7 days in dark at 24° C.) is reported as “significantly higher than control”; with corn seedling (Example 1, GL 1 mg/L seed treatment, main root, 7 days in dark at 24° C., listed as GL), 7.108a cm; with corn seedling (setting [5]) it was “did not show any difference”; in the experiment with corn seedling (setting [6]) it was 6.282ab cm; in the experiment on corn seedling (setting [7]), 6.778ab cm; in the experiment with corn seedling (setting [8]), “optimum dose”. Besides, the Length in the experiment with corn seedling (Example 2, GL 1.0 mg/L seed treatment, listed as GL) is 7.048a cm; in the experiment on corn seedling (setting [9]), “least effective”; in the experiment on corn seedling (Example 2, GL 5.0 mg/L seed treatment, listed as GL) it was 6.054b cm. Besides, the Diam is given as 1.190a mm in the experiment with corn seedling (setting [7]), 1.116b mm in the experiment with corn seedling (setting [8]) and 1.149ab mm in the experiment with corn seedling (setting [9]). Also, the “Root Volume” value with corn seedling (setting [7]) worked out at 0.076a cm3; with corn seedling (setting [8]), 0.070ab cm3; with corn seedling (setting [9]), 0.063b cm3. Also, the results for the Seedling dry weight in the experiment with corn seedlings (setting [10]), in the experiment with green lentil seedlings (setting [10]) and in the experiment with yellow pea seedlings (setting [10]) were 0.606a g, 0.083a* g and 0.483a g, respectively. For the same compound, the “average plant dry biomass higher (than control)” value is reported as 6.3% in the experiment with corn seedlings (setting [11]); 38.3% in the experiment on green lentil seedlings (gluconolactone 1 mg/L, significantly); 5.0% in the experiment with yellow pea seedlings (setting [11]). Further, the “yield increase over Cue®” value came to 6% in the experiment with soybean [1] (1st trial), 9.7% in the experiment on soybean [1] (2nd trial) and 0.6% in the experiment on soybean [1] (3rd trial). Besides, the “yield increase (over daidzein alone)” value in the experiment with soybean [1] (gluconolactone added with daidzein, in 2 out of 3 trials) is reported as “approximately 2.5%”. The “% increase (dry pod yield)” value is listed as 3.36% in the experiment on soybean [2] (1 mg/L gluconolactone added to Cell-Tech, over Cell-Tech alone) and 4.84% with soybean [2] (1 mg/L gluconolactone added to Optimize-400, over Optimize-400 alone). Besides, the “No. of lateral roots” value in the experiment with lentil seedlings was 2.935 ab; with lentil seedlings (listed as gluconolactone), “significantly increased”. For the same compound, the “Seedling Root Length” value is 2.895 a cm with lentil seedlings and “significantly increased” with lentil seedlings (listed as gluconolactone).
